Data published in paper PMC5814316 (Experimental Animals, 2017).

Columns and labels:
[1] = suffering and junctival irritation of the operator; cited from earlier work
[2] = Pharmacokinetic study in rats: CP and DECP with and without KTZ, KTZ alone; type: in vivo; conditions: rat, plasma; for AUC(0-inf): AUC0→∞; for MRT inf: MRT0–∞
[3] = Stability of DECP, CP and KTZ in rat plasma under storage conditions; type: physicochemical; conditions: for Short term stability, Measured / Short term stability, RE: 25 °C for 3 h; for stability throughout the whole manipulation and storage processes: short term, long term, freeze-thaw; for Long term stability, Measured / Long term stability, RE: −80 °C for 3 months; for Three freeze−thaw cycles, Measured / Three freeze−thaw cycles, RE: −80°C to 25°C
[4] = target: T1, CYP3A4 (Homo sapiens, UniProt P08684); assay: in vitro; conditions: human liver microsomes
T1 sequence (P08684 whole entry): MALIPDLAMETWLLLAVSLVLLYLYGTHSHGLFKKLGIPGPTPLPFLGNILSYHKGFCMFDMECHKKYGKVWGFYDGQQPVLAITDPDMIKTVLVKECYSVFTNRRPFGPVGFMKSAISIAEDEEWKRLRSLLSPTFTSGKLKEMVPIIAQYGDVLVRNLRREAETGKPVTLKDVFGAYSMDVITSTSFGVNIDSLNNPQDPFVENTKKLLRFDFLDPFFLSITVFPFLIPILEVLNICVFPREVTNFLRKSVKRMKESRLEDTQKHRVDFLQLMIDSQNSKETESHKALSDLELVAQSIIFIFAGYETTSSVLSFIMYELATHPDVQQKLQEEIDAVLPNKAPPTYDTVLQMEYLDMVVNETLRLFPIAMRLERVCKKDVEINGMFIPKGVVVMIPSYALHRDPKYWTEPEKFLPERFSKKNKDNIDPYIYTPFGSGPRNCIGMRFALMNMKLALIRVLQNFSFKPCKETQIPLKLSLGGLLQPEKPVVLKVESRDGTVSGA

[5] = test system: CYP2B6; conditions: C-4 oxidation of CP; cited from earlier work
[6] = test system: CYP3A4; conditions: C-4 oxidation of CP; cited from earlier work
[7] = test system: CYP2C9; conditions: C-4 oxidation of CP; cited from earlier work
[8] = test system: CYP3A4; conditions: cited from earlier work
[9] = test system: rats; assay: Toxicity observation in rats after single dose KTZ; type: in vivo, rat
[10] = target: T1, CYP3A4; assay: KTZ inhibition of CP conversion to DECP in HLM; conditions: human liver microsomes, probe CP (cyclophosphamide)
[11] = iv, 10 mg/kg, Group 1 (0 mg/kg KTZ), CP 10 mg/kg i.v., rats
[12] = iv, 10 mg/kg, Group 2 (10 mg/kg KTZ oral, 50 min before), CP 10 mg/kg i.v., rats
[13] = iv, 10 mg/kg, Group 3 (20 mg/kg KTZ oral, 50 min before), CP 10 mg/kg i.v., rats
[14] = iv, 10 mg/kg, Group 4 (40 mg/kg KTZ oral, 50 min before), CP 10 mg/kg i.v., rats

Compound: O=CCCl [CAA, chloroacetaldehyde]
- exposure level at which dangerous [1]: 45 ppm

Compound: O=P1(N(CCCl)CCCl)NCCCO1 (stereo not drawn) [CP, Cyclophosphamide]
- AUC(0-t) ([2]; iv, 10 mg/kg, AUC0→t, Group 2 (10 mg/kg KTZ oral, 50 min before), CP 10 mg/kg i.v., rats): 21.1 µg·h/mL
- AUC(0-t) ([2]; iv, 10 mg/kg, AUC0→t, Group 3 (20 mg/kg KTZ oral, 50 min before), CP 10 mg/kg i.v., rats): 28.7 µg·h/mL
- AUC(0-t) ([2]; iv, 10 mg/kg, AUC0→t, Group 4 (40 mg/kg KTZ oral, 50 min before), CP 10 mg/kg i.v., rats): 38.2 µg·h/mL
- AUC(0-inf) [2, 11]: 15.5 µg·h/mL
- AUC(0-inf) [2, 12]: 21.9 µg·h/mL
- AUC(0-inf) [2, 13]: 29.6 µg·h/mL
- AUC(0-inf) [2, 14]: 39 µg·h/mL
- Cmax ([2]; iv, 10 mg/kg, Cmax, Group 1 (0 mg/kg KTZ), CP 10 mg/kg i.v., rats): 9.42 µg/mL
- Cmax ([2]; iv, 10 mg/kg, Cmax, Group 2 (10 mg/kg KTZ oral, 50 min before), CP 10 mg/kg i.v., rats): 10.4 µg/mL
- Cmax ([2]; iv, 10 mg/kg, Cmax, Group 3 (20 mg/kg KTZ oral, 50 min before), CP 10 mg/kg i.v., rats): 11.4 µg/mL
- Cmax ([2]; iv, 10 mg/kg, Cmax, Group 4 (40 mg/kg KTZ oral, 50 min before), CP 10 mg/kg i.v., rats): 9.6 µg/mL
- MRT last ([2]; iv, 10 mg/kg, MRT0–t, Group 1 (0 mg/kg KTZ), CP 10 mg/kg i.v., rats): 1.7 ± 0.167 h
- MRT last ([2]; iv, 10 mg/kg, MRT0–t, Group 2 (10 mg/kg KTZ oral, 50 min before), CP 10 mg/kg i.v., rats): 1.72 ± 0.357 h
- MRT last ([2]; iv, 10 mg/kg, MRT0–t, Group 3 (20 mg/kg KTZ oral, 50 min before), CP 10 mg/kg i.v., rats): 2.04 ± 0.293 h
- MRT last ([2]; iv, 10 mg/kg, MRT0–t, Group 4 (40 mg/kg KTZ oral, 50 min before), CP 10 mg/kg i.v., rats): 2.65 ± 0.482 h
- MRT inf [2, 11]: 1.9 ± 0.345 h
- MRT inf [2, 12]: 1.86 ± 0.6 h
- MRT inf [2, 13]: 2.12 ± 0.361 h
- MRT inf [2, 14]: 2.67 ± 0.505 h
- Tmax ([2]; iv, 10 mg/kg, Tmax, Group 1 (0 mg/kg KTZ), CP 10 mg/kg i.v., rats): 0.194 ± 0.086 h
- Tmax ([2]; iv, 10 mg/kg, Tmax, Group 2 (10 mg/kg KTZ oral, 50 min before), CP 10 mg/kg i.v., rats): 0.194 ± 0.086 h
- Tmax ([2]; iv, 10 mg/kg, Tmax, Group 3 (20 mg/kg KTZ oral, 50 min before), CP 10 mg/kg i.v., rats): 0.139 ± 0.086 h
- Tmax ([2]; iv, 10 mg/kg, Tmax, Group 4 (40 mg/kg KTZ oral, 50 min before), CP 10 mg/kg i.v., rats): 0.347 ± 0.327 h
- Short term stability, Measured ([3]; nominal 20 ng/ml): 20.57 ± 0.81 ng/mL
- Short term stability, RE ([3]; nominal 20 ng/ml): 2.85%
- Short term stability, Measured ([3]; nominal 80 ng/ml): 84.49 ± 2.05 ng/mL
- Short term stability, RE ([3]; nominal 80 ng/ml): 5.61%
- Short term stability, Measured ([3]; nominal 500 ng/ml): 525.40 ± 73.09 ng/mL
- Short term stability, RE ([3]; nominal 500 ng/ml): 5.08%
- stability throughout the whole manipulation and storage processes [3]: stable
- Long term stability, Measured ([3]; nominal 20 ng/ml): 18.79 ± 0.42 ng/mL
- Long term stability, RE ([3]; nominal 20 ng/ml): −6.05%
- Long term stability, Measured ([3]; nominal 80 ng/ml): 81.16 ± 2.40 ng/mL
- Long term stability, RE ([3]; nominal 80 ng/ml): 1.45%
- Long term stability, Measured ([3]; nominal 500 ng/ml): 509.89 ± 68.17 ng/mL
- Long term stability, RE ([3]; nominal 500 ng/ml): 1.98%
- Three freeze−thaw cycles, Measured ([3]; nominal 20 ng/ml): 18.68 ± 0.20 ng/mL
- Three freeze−thaw cycles, RE ([3]; nominal 20 ng/ml): −6.60%
- Three freeze−thaw cycles, Measured ([3]; nominal 80 ng/ml): 78.39 ± 1.43 ng/mL
- Three freeze−thaw cycles, RE ([3]; nominal 80 ng/ml): −2.01%
- Three freeze−thaw cycles, Measured ([3]; nominal 500 ng/ml): 490.26 ± 78.18 ng/mL
- Three freeze−thaw cycles, RE ([3]; nominal 500 ng/ml): −1.95%
- Km [4]: 160 µM
- share of the total CP bioactivation [5]: approximately 45%
- share of the total CP bioactivation [6]: 25%
- share of the total CP bioactivation [7]: 12%
- part of CP dechloroethylated to DECP and CAA [8]: about 10%

Compound: CC(=O)N1CCN(c2ccc(OCC3COC(Cn4ccnc4)(c4ccc(Cl)cc4Cl)O3)cc2)CC1 (stereo not drawn) [KTZ, ketoconazole]
- AUC(0-t) ([2]; po, 20 mg/kg): 4.73 µg·h/mL
- Cmax ([2]; po, 20 mg/kg): 2.05 µg/mL
- MRT last ([2]; po, 20 mg/kg): 1.86 ± 0.193 h
- Tmax ([2]; po, 20 mg/kg): 0.514 ± 0.399 h
- Short term stability, Measured ([3]; nominal 10 ng/ml): 9.97 ± 0.23 ng/mL
- Short term stability, RE ([3]; nominal 10 ng/ml): −0.30%
- Short term stability, Measured ([3]; nominal 40 ng/ml): 42.23 ± 0.76 ng/mL
- Short term stability, Measured ([3]; nominal 250 ng/ml): 264.51 ± 38.66 ng/mL
- Short term stability, RE ([3]; nominal 250 ng/ml): 5.80%
- stability throughout the whole manipulation and storage processes [3]: stable
- Long term stability, Measured ([3]; nominal 10 ng/ml): 9.55 ± 0.07 ng/mL
- Long term stability, RE ([3]; nominal 10 ng/ml): −4.50%
- Long term stability, Measured ([3]; nominal 40 ng/ml): 40.04 ± 0.57 ng/mL
- Long term stability, RE ([3]; nominal 40 ng/ml): 0.10%
- Long term stability, Measured ([3]; nominal 250 ng/ml): 259.01 ± 37.39 ng/mL
- Long term stability, RE ([3]; nominal 250 ng/ml): 3.64%
- Three freeze−thaw cycles, Measured ([3]; nominal 10 ng/ml): 9.57 ± 0.23 ng/mL
- Three freeze−thaw cycles, RE ([3]; nominal 10 ng/ml): −4.30%
- Three freeze−thaw cycles, Measured ([3]; nominal 40 ng/ml): 39.46 ± 0.44 ng/mL
- Three freeze−thaw cycles, RE ([3]; nominal 40 ng/ml): −1.35%
- Three freeze−thaw cycles, Measured ([3]; nominal 250 ng/ml): 254.65 ± 38.96 ng/mL
- Three freeze−thaw cycles, RE ([3]; nominal 250 ng/ml): 1.86%
- toxicity (physiological aspects, data not shown) [9]: no obvious toxicity
- IC50 [10]: 0.618 µM
